“And” between values parts separate entries of the source, which are not always exact repeats. Equal entries are not always repeated.

What all share (type): in vivo
Series [1] relates to Domestic Yorkshire pigs. As to the kind of experiment: Porcine liposome-induced cardio-pulmonary distress model. The following applies: pig, 10 mg/kg i.v. liposomal formulation. How it is done: Domestic Yorkshire pigs (12-14 weeks, ~25 kg) received multiple i.v. injections of the test material via the external jugular vein at 10 mL/min as follows: saline as a negative control, the liposomal formulation of TRO40303 at 10 mg/kg and a bolus of Doxil® at 0.01 mg/kg as a positive control. Doxil® is a marketed liposomal formulation of doxorubicin administered intravenously that can provoke acute infusion-related reactions.
Hemodynamic changes were monitored continuously for at least 30 min after the end of each test material infusion. Systemic arterial blood pressure (SAP) and pulmonary arterial blood pressure (PAP) changes were evaluated.

Series [2] can be described thus: TRO40303 heart level measurement in rats. The following applies: rat, 1 mg/kg i.v. in IL30 10 min before CAO or 10 min before CAR, 5 min post reperfusion, AAR and remainder of left ventricle. How it is done:
TRO40303 was administered by intravenous (i.v.) bolus to healthy rats at doses of 0.3, 1, 3 and 10 mg/kg in IL30 under isoflurane gas anaesthesia. A maximum of 0.25 mL of blood was collected into lithium heparin tubes at 5, 15 and 30 min, 1 h, 2 h, 4 h, 8 h and 24 h after drug administration (3 rats per time point). The blood samples were cooled on ice and plasma samples were prepared within 60 min of sampling by centrifugation at 1500 g at 4 °C for 10 min and stored at –20°C until analysis. For heart level measurements, TRO40303 was administrated i.v. to rats undergoing the myocardial infarction procedure at the dose of 1 mg/kg in IL30 either 10 min before CAO or 10 min before CAR. Five min after CAR, rats were anesthetised and sacrificed, hearts were isolated and washed with saline. […] After TRO40303 plasma concentration analysis, TRO40303 plasma AUC(0-∞) (the area under the curve extrapolated from time zero to time infinity), was calculated using Kinetica™, version 4.4.1 (Thermo Electron Corporation, Philadelphia, PA 19103, USA). The results were analyzed in comparison with previous pharmacokinetic data obtained with TRO40303 formulated in HPBCD at 2.5 mg/kg.
Thawed preclinical samples were extracted with acetonitrile, centrifuged, purified on SPEC C2 cartridge (Varian) for the heart samples and analysed along with calibration standards. […]

In series [3] the test system is myocardial infarction model in rats. The series can be described thus: Myocardial infarction model in rats (35 min CAO, reperfusion, infarct size by TTC). The following applies: rat; for IS (% AAR) / IS (% LV) / IS (% Vehicle IS): 24 h reperfusion, mean ± S.E.M.; for reduction of infarct size compared to control: p < 0.001. As to the method:
In all groups of rats, the left anterior descending coronary artery was occluded during 35 min and released for reperfusion as previously described. For the dose range testing, the vehicle (IL30) or TRO40303 solution in IL30 (stock solution diluted in IL30 to administer ~1.5 mL/kg in each group) at increasing doses (0.3, 1, 3 and 10 mg/kg) were administered as a 5 min infusion through the jugular vein starting 10 min before coronary artery reperfusion (CAR). To evaluate the therapeutic window, the vehicle or TRO40303 at 1 mg/kg were also administered either 10 min before coronary artery occlusion (CAO) or 10 min after CAR. Infarct size was determined by triphenyltetrazolium chloride (TTC) staining and was calculated as a percentage of the area at risk (AAR), 24 h after reperfusion. For the dose range experiment, infarct size was expressed for all doses as a percent of the vehicle group infarct size.

Where [4] appears, read: 0.3 mg/kg in IL30 i.v. 10 min before CAR.
Setting [5] is: 1 mg/kg in IL30 i.v. 10 min before CAR.
The mark [6] stands for this setting: 3 mg/kg in IL30 i.v. 10 min before CAR.
[7] abbreviates: 10 mg/kg in IL30 i.v. 10 min before CAR.

As for `CC(C)CCC[C@@H](C)[C@H]1CC[C@H]2[C@@H]3CC/C(=N\O)[C@](C)(CCCO)[C@H]3CC[C@]12C` [TRO40303, 3,5-seco-4-nor-cholestan-5-one oxime-3-ol], the “change in systemic arterial blood pressure (SAP)” value in series [1] is on record as “not changed”. Also, the “concentration of TRO40303 in heart tissue” value in series [2] is listed as ~ 1 μg/g. The “IS (% AAR)” value in series [3] (setting [4]) is 26 ± 4 % AAR; in series [3] (setting [5]) it was 19 ± 2 % AAR; in series [3] (setting [6]), 15 ± 2 % AAR; in series [3] (setting [7]), 25 ± 6 % AAR. Also, the “IS (% LV)” value came out at 11 ± 2 % LV in series [3] (setting [4]), 7 ± 1 % LV in series [3] (setting [5]), 6 ± 1 % LV in series [3] (setting [6]) and 7 ± 2 % LV in series [3] (setting [7]). Moreover, the “IS (% Vehicle IS)” value in series [3] (setting [4]) stood at 77 ± 15 % Vehicle IS; in series [3] (setting [5]) it was 56 ± 6 % Vehicle IS; in series [3] (setting [6]), 44 ± 7 % Vehicle IS; in series [3] (setting [7]), 45 ± 10 % Vehicle IS. Besides, the “infarct size compared to vehicle” value in series [3] (0.3 mg/kg in IL30 i.v. bolus 10 min before reperfusion, 24 h after reperfusion) was “smaller but not significantly different”; in series [3] (1 mg/kg in IL30 10 min after the onset of CAR), “unchanged”. Further, the “reduction of infarct size compared to vehicle” value was 55% in series [3] (1 mg/kg in IL30 10 min before 35 min CAO) and 40% in series [3] (1 mg/kg in IL30 i.v. bolus 10 min before reperfusion, p < 0.01). The “reduction of infarct size compared to control” value in series [3] (3 mg/kg in IL30 i.v. bolus 10 min before reperfusion, 3 mg/kg) is 50% and ~ 50%; in series [3] (10 mg/kg in IL30 i.v. bolus 10 min before reperfusion, 10 mg/kg), 50% and ~ 50%.
